ChEMBL document CHEMBL1201861, “Genomics of Drug Sensitity in Cancer screening data, Wellcome Trust Sanger Institute”

Experiments:
Test in all cases: cells
Assay type in all cases: functional, cell-based, Homo sapiens
D-336MG = test system: D-336MG
Description: SANGER: Inhibition of human D-336MG cell growth in a cell viability assay.

DK-MG = test system: DK-MG;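 also: growth inhibition of DK-MG cells, read out with a cell viability assay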
Description: SANGER: Inhibition of human DK-MG cell growth in a cell viability assay.

EFM-19 = test system: EFM-19;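 also: growth inhibition of human EFM-19 cells, measured in a cell viability assay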
Description: SANGER: Inhibition of human EFM-19 cell growth in a cell viability assay.

EFO-21 = test system: EFO-21;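 also: growth inhibition of EFO-21 cells measured with a viability assay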
Description: SANGER: Inhibition of human EFO-21 cell growth in a cell viability assay.

ESS-1 = test system: ESS-1;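 also: growth inhibition of human ESS-1 cells, read out by a cell viability assay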
Description: SANGER: Inhibition of human ESS-1 cell growth in a cell viability assay.

GCIY = test system: GCIY;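 also: growth inhibition of the human GCIY cell line, read out by a cell viability assay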
Description: SANGER: Inhibition of human GCIY cell growth in a cell viability assay.

HSC-4 = test system: HSC-4;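 also: growth inhibition of human HSC-4 cells, read out with a cell viability assay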
Description: SANGER: Inhibition of human HSC-4 cell growth in a cell viability assay.

Huh-7 = test system: Huh-7;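 also: HuH-7 cell growth inhibition, read out with a cell viability assay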
Description: SANGER: Inhibition of human HuH-7 cell growth in a cell viability assay.

HuO9 = test system: HuO9;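 also: growth inhibition of HuO9 cells, read out with a cell viability assay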
Description: SANGER: Inhibition of human HuO9 cell growth in a cell viability assay.

J82 = test system: J82;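 also: growth inhibition of J82 cells, read out with a cell viability assay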
Description: SANGER: Inhibition of human J82 cell growth in a cell viability assay.

Kasumi 1 = test system: Kasumi 1;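 also: growth inhibition of human Kasumi-1 cells, read out by a cell viability assay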
Description: SANGER: Inhibition of human KASUMI-1 cell growth in a cell viability assay.

KP-N-YN = test system: KP-N-YN;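 also: growth inhibition of KP-N-YN cells, read out with a cell viability assay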
Description: SANGER: Inhibition of human KP-N-YN cell growth in a cell viability assay.

LAN-6 = test system: LAN-6;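 also: growth inhibition of LAN-6 cells, determined with a cell viability assay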
Description: SANGER: Inhibition of human LAN-6 cell growth in a cell viability assay.

LB831-BLC = test system: LB831-BLC;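 also: growth inhibition of LB831-BLC cells, read out with a cell viability assay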
Description: SANGER: Inhibition of human LB831-BLC cell growth in a cell viability assay.

LK-2 = test system: LK-2;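 also: growth inhibition of LK-2 cells, read out with a viability assay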
Description: SANGER: Inhibition of human LK-2 cell growth in a cell viability assay.

LXF-289 cell line = test system: LXF-289 cell line
Description: SANGER: Inhibition of human LXF-289 cell growth in a cell viability assay.

MEL-HO = test system: MEL-HO
Description: SANGER: Inhibition of human MEL-HO cell growth in a cell viability assay.

MKN-1 = test system: MKN-1;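 also: growth inhibition of human MKN1 cells, read out by a cell viability measurement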
Description: SANGER: Inhibition of human MKN1 cell growth in a cell viability assay.

MKN-45 = test system: MKN-45;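 also: growth inhibition of human MKN-45 cells, measured with a cell viability assay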
Description: SANGER: Inhibition of human MKN45 cell growth in a cell viability assay.

MKN-7 = test system: MKN-7;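 also: growth inhibition of MKN-7 cells, read out with a cell viability assay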
Description: SANGER: Inhibition of human MKN7 cell growth in a cell viability assay.

NB13 = test system: NB13;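 also: cell viability readout measuring growth inhibition of human NB13 cells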
Description: SANGER: Inhibition of human NB13 cell growth in a cell viability assay.

NCI-H1155 = test system: NCI-H1155;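 also: cell growth inhibition measured by a viability assay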
Description: SANGER: Inhibition of human NCI-H1155 cell growth in a cell viability assay.

NCI-H2029 = test system: NCI-H2029;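 also: Read-out is a viability assay on the cultured cells, and IC50 is the concentration that suppresses cell growth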
Description: SANGER: Inhibition of human NCI-H2029 cell growth in a cell viability assay.

NCI-H23 = test system: NCI-H23;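 also: cell viability assay measuring growth inhibition of NCI-H23 cells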
Description: SANGER: Inhibition of human NCI-H23 cell growth in a cell viability assay.

NCI-H2347 = test system: NCI-H2347;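 also: growth inhibition of the cell line, read out with a cell viability assay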
Description: SANGER: Inhibition of human NCI-H2347 cell growth in a cell viability assay.

SNU-5 = test system: SNU-5;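 also: cell viability readout used to measure growth inhibition in human NCI-SNU-5 cells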
Description: SANGER: Inhibition of human NCI-SNU-5 cell growth in a cell viability assay.

NEC8 = test system: NEC8;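 also: growth inhibition of human NEC8 cells, read out by a cell viability assay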
Description: SANGER: Inhibition of human NEC8 cell growth in a cell viability assay.

OAW-28 = test system: OAW-28;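 also: growth inhibition of OAW-28 cells, read out with a cell viability assay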
Description: SANGER: Inhibition of human OAW-28 cell growth in a cell viability assay.

PANC-08-13 = test system: PANC-08-13;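 also: cell growth inhibition, measured with a cell viability assay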
Description: SANGER: Inhibition of human PANC-08-13 cell growth in a cell viability assay.

SH-4 = test system: SH-4;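 also: growth inhibition of SH-4 cells, read out with a cell viability assay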
Description: SANGER: Inhibition of human SH-4 cell growth in a cell viability assay.

SNU-C2B = test system: SNU-C2B;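 also: cell viability readout used to measure compound-driven suppression of SNU-C2B cell proliferation, IC50 marking half-maximal growth inhibition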
Description: SANGER: Inhibition of human SNU-C2B cell growth in a cell viability assay.

SW1990 = test system: SW1990;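 also: cell growth inhibition determined with a viability assay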
Description: SANGER: Inhibition of human SW1990 cell growth in a cell viability assay.

SW837 = test system: SW837;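 also: growth inhibition of SW837 cells, determined with a cell viability assay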
Description: SANGER: Inhibition of human SW837 cell growth in a cell viability assay.

SAOS-2 = test system: SAOS-2;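 also: growth inhibition of human Saos-2 cells determined by a cell viability assay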
Description: SANGER: Inhibition of human Saos-2 cell growth in a cell viability assay.

T98G = test system: T98G;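 also: growth inhibition of T98G cells, read out by a cell viability assay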
Description: SANGER: Inhibition of human T98G cell growth in a cell viability assay.

5637 = test system: 5637
Description: SANGER: Inhibition of human 5637 cell growth in a cell viability assay.

769-P = test system: 769-P
Description: SANGER: Inhibition of human 769-P cell growth in a cell viability assay.

BB30-HNC = test system: BB30-HNC;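 also: growth inhibition of the cultured cell line, read out by a cell viability assay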
Description: SANGER: Inhibition of human BB30-HNC cell growth in a cell viability assay.

TGBC1TKB = test system: TGBC1TKB;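 also: growth inhibition of TGBC1TKB cells, read out by a cell viability assay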
Description: SANGER: Inhibition of human TGBC1TKB cell growth in a cell viability assay.

CCRF-CEM = test system: CCRF-CEM;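 also: inhibition of CCRF-CEM cell growth, measured by a cell viability assay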
Description: SANGER: Inhibition of human CCRF-CEM cell growth in a cell viability assay.

COLO-320-HSR = test system: COLO-320-HSR;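 also: growth inhibition of COLO-320-HSR cells, determined with a cell viability assay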
Description: SANGER: Inhibition of human COLO-320-HSR cell growth in a cell viability assay.

In the case of `Cc1cn(-c2cc(NC(=O)c3ccc(C)c(Nc4nccc(-c5cccnc5)n4)c3)cc(C(F)(F)F)c2)cn1` [NILOTINIB], the IC50 (D-336MG; Homo sapiens, D-336MG) is reported as > 2 µM, the IC50 (DK-MG; Homo sapiens, DK-MG) is reported as > 2 µM and the IC50 (EFM-19; Homo sapiens, EFM-19) is reported as > 2 µM. For the same compound, the IC50 (EFO-21; Homo sapiens, EFO-21) was > 2 µM, the IC50 (ESS-1; Homo sapiens, ESS-1) was > 2 µM and the IC50 (GCIY; Homo sapiens, GCIY) was > 2 µM. The IC50 (HSC-4; Homo sapiens, HSC-4) was > 2 µM, the IC50 (Huh-7; Homo sapiens, Huh-7) was > 2 µM and the IC50 (HuO9; Homo sapiens, HuO9) was > 2 µM. The IC50 (J82; Homo sapiens, J82) was > 2 µM, the IC50 (Kasumi 1; Homo sapiens, Kasumi 1) was 0.0241 µM and the IC50 (KP-N-YN; Homo sapiens, KP-N-YN) was > 2 µM. The IC50 (LAN-6; Homo sapiens, LAN-6) was > 2 µM, the IC50 (LB831-BLC; Homo sapiens, LB831-BLC) was > 2 µM and the IC50 (LK-2; Homo sapiens, LK-2) was > 2 µM. The IC50 (LXF-289 cell line; Homo sapiens, LXF-289) was > 2 µM, the IC50 (MEL-HO; Homo sapiens, MEL-HO) was > 2 µM and the IC50 (MKN-1; Homo sapiens, MKN-1) was > 2 µM. For the same compound, the IC50 (MKN-45; Homo sapiens, MKN-45) was > 2 µM, the IC50 (MKN-7; Homo sapiens, MKN-7) was > 2 µM and the IC50 (NB13; Homo sapiens, NB13) was > 2 µM. For the same compound, the IC50 (NCI-H1155; Homo sapiens, NCI-H1155) was > 2 µM, the IC50 (NCI-H2029; Homo sapiens, NCI-H2029) was > 2 µM and the IC50 (NCI-H23; Homo sapiens, NCI-H23) was > 2 µM. The IC50 (NCI-H2347; Homo sapiens, NCI-H2347) was > 2 µM, the IC50 (SNU-5; Homo sapiens, SNU-5) was > 2 µM and the IC50 (NEC8; Homo sapiens, NEC8) was > 2 µM. The IC50 (OAW-28; Homo sapiens, OAW-28) was > 2 µM, the IC50 (PANC-08-13; Homo sapiens, PANC-08-13) was > 2 µM and the IC50 (SH-4; Homo sapiens, SH-4) was > 2 µM. For the same compound, the IC50 (SNU-C2B; Homo sapiens, SNU-C2B) was > 2 µM, the IC50 (SW1990; Homo sapiens, SW1990) was > 2 µM and the IC50 (SW837; Homo sapiens, SW837) was > 2 µM. The IC50 (SAOS-2; Homo sapiens, SAOS-2) was > 2 µM, the IC50 (T98G; Homo sapiens, T98G) was > 2 µM and the IC50 (5637; Homo sapiens) was > 2 µM. The IC50 (769-P; Homo sapiens, 769-P) was > 2 µM, the IC50 (BB30-HNC; Homo sapiens, BB30-HNC) was > 2 µM and the IC50 (TGBC1TKB; Homo sapiens, TGBC1TKB) was > 2 µM. The IC50 (CCRF-CEM; Homo sapiens, CCRF-CEM) was > 2 µM and the IC50 (COLO-320-HSR; Homo sapiens, COLO-320-HSR) was > 2 µM.
For `CO[C@H]1C[C@@H]2CC[C@@H](C)[C@@](O)(O2)C(=O)C(=O)N2CCCC[C@H]2C(=O)O[C@H]([C@H](C)C[C@@H]2CC[C@@H](OC(=O)C(C)(CO)CO)[C@H](OC)C2)CC(=O)[C@H](C)/C=C(\C)[C@@H](O)[C@@H](OC)C(=O)[C@H](C)C[C@H](C)/C=C/C=C/C=C/1C` [TEMSIROLIMUS], the IC50 (D-336MG; Homo sapiens, D-336MG) was 0.076 µM, the IC50 (DK-MG; Homo sapiens, DK-MG) was > 0.2 µM and the IC50 (EFM-19; Homo sapiens, EFM-19) was 0.0815 µM. For the same compound, the IC50 (EFO-21; Homo sapiens, EFO-21) was > 0.2 µM, the IC50 (ESS-1; Homo sapiens, ESS-1) was > 0.2 µM and the IC50 (GCIY; Homo sapiens, GCIY) was > 0.2 µM. For the same compound, the IC50 (HSC-4; Homo sapiens, HSC-4) was < 0.000781 µM, the IC50 (Huh-7; Homo sapiens, Huh-7) was 0.0123 µM and the IC50 (HuO9; Homo sapiens, HuO9) was 0.177 µM. For the same compound, the IC50 (J82; Homo sapiens, J82) was 0.148 µM, the IC50 (Kasumi 1; Homo sapiens, Kasumi 1) was 0.0562 µM and the IC50 (KP-N-YN; Homo sapiens, KP-N-YN) was > 0.2 µM. For the same compound, the IC50 (LAN-6; Homo sapiens, LAN-6) was > 0.2 µM, the IC50 (LB831-BLC; Homo sapiens, LB831-BLC) was > 0.2 µM and the IC50 (LK-2; Homo sapiens, LK-2) was > 0.2 µM. The IC50 (LXF-289 cell line; Homo sapiens, LXF-289) was 0.148 µM, the IC50 (MEL-HO; Homo sapiens, MEL-HO) was 0.0336 µM and the IC50 (MKN-1; Homo sapiens, MKN-1) was > 0.2 µM. For the same compound, the IC50 (MKN-45; Homo sapiens, MKN-45) was > 0.2 µM, the IC50 (MKN-7; Homo sapiens, MKN-7) was > 0.2 µM and the IC50 (NB13; Homo sapiens, NB13) was > 0.2 µM. The IC50 (NCI-H1155; Homo sapiens, NCI-H1155) was 0.0636 µM, the IC50 (NCI-H2029; Homo sapiens, NCI-H2029) was > 0.2 µM and the IC50 (NCI-H23; Homo sapiens, NCI-H23) was > 0.2 µM. The IC50 (NCI-H2347; Homo sapiens, NCI-H2347) was > 0.2 µM, the IC50 (SNU-5; Homo sapiens, SNU-5) was > 0.2 µM and the IC50 (NEC8; Homo sapiens, NEC8) was > 0.2 µM. The IC50 (OAW-28; Homo sapiens, OAW-28) was > 0.2 µM, the IC50 (PANC-08-13; Homo sapiens, PANC-08-13) was > 0.2 µM and the IC50 (SH-4; Homo sapiens, SH-4) was > 0.2 µM. The IC50 (SNU-C2B; Homo sapiens, SNU-C2B) was > 0.2 µM, the IC50 (SW1990; Homo sapiens, SW1990) was > 0.2 µM and the IC50 (SW837; Homo sapiens, SW837) was > 0.2 µM. The IC50 (SAOS-2; Homo sapiens, SAOS-2) was > 0.2 µM, the IC50 (T98G; Homo sapiens, T98G) was 0.0262 µM and the IC50 (5637; Homo sapiens) was > 0.2 µM. The IC50 (769-P; Homo sapiens, 769-P) was > 0.2 µM, the IC50 (BB30-HNC; Homo sapiens, BB30-HNC) was > 0.2 µM and the IC50 (TGBC1TKB; Homo sapiens, TGBC1TKB) was 0.137 µM. For the same compound, the IC50 (CCRF-CEM; Homo sapiens, CCRF-CEM) was > 0.2 µM and the IC50 (COLO-320-HSR; Homo sapiens, COLO-320-HSR) was > 0.2 µM.
Work on CISPLATIN yielded an IC50 (D-336MG; d-336mg) of 33.9 µM, an IC50 (DK-MG; dk-mg) of 137 µM and an IC50 (EFM-19; efm-19) of 245 µM. The IC50 (EFO-21; efo-21) was 33.7 µM, the IC50 (ESS-1; ess-1) was 2.54 µM and the IC50 (GCIY; gciy) was 18.5 µM. It also gave an IC50 (HSC-4; hsc-4) of 1.58 µM, an IC50 (Huh-7; huh-7) of 40.9 µM and an IC50 (HuO9; huo9) of 38.7 µM. For the same compound, the IC50 (J82; j82) was 5.1 µM, the IC50 (Kasumi 1; kasumi 1) was 62.1 µM and the IC50 (KP-N-YN; kp-n-yn) was 581 µM. The IC50 (LAN-6; lan-6) was 256 µM, the IC50 (LB831-BLC; lb831-blc) was 225 µM and the IC50 (LK-2; lk-2) was 44.3 µM. It also gave an IC50 (LXF-289 cell line; lxf-289) of 52.7 µM, an IC50 (MEL-HO; mel-ho) of 1.07 µM and an IC50 (MKN-1; mkn-1) of 42.1 µM. For the same compound, the IC50 (MKN-45; mkn-45) was 28.6 µM, the IC50 (MKN-7; mkn-7) was 20 µM and the IC50 (NB13; nb13) was 40.1 µM. The IC50 (NCI-H1155; nci-h1155) was 22.7 µM, the IC50 (NCI-H2029; nci-h2029) was 961 µM and the IC50 (NCI-H23; nci-h23) was 40 µM. For the same compound, the IC50 (NCI-H2347; nci-h2347) was 218 µM, the IC50 (SNU-5; snu-5) was 141 µM and the IC50 (NEC8; nec8) was 2.52 µM. For the same compound, the IC50 (OAW-28; oaw-28) was 22.9 µM, the IC50 (PANC-08-13; panc-08-13) was 22.5 µM and the IC50 (SH-4; sh-4) was 68.7 µM. The IC50 (SNU-C2B; snu-c2b) was 38.4 µM, the IC50 (SW1990; sw1990) was 9.71 µM and the IC50 (SW837; sw837) was 190 µM. It also gave an IC50 (SAOS-2; saos-2) of 36.3 µM, an IC50 (T98G; t98g) of 141 µM and an IC50 5637 of 4.52 µM. The IC50 (769-P; 769-p) was 16.2 µM, the IC50 (BB30-HNC; bb30-hnc) was 24.5 µM and the IC50 (TGBC1TKB; tgbc1tkb) was 82.6 µM. For the same compound, the IC50 (CCRF-CEM; ccrf-cem) was 96 µM and the IC50 (COLO-320-HSR; colo-320-hsr) was 338 µM.
